The target of this test is human APJ receptor (Homo sapiens (Human), UniProt P35414). Kind of test: Intracellular cAMP accumulation assay (APJ hcAMP, HTRF). The note with it: human APJ, intracellular cAMP accumulation; read-out: Human APJ cAMP EC50 Potency range. It is filed as cell-based. The method in brief: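 HEK293 cells stably expressing human APJ, 5,000 per well, incubated 30 min at rt with compound, […] and 2 μM forskolin. cAMP measured by HTRF against a cAMP standard curve as inhibition of forskolin-driven production. EC50 from variable-slope sigmoidal fit.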
Sequence of human APJ receptor (P35414 whole entry): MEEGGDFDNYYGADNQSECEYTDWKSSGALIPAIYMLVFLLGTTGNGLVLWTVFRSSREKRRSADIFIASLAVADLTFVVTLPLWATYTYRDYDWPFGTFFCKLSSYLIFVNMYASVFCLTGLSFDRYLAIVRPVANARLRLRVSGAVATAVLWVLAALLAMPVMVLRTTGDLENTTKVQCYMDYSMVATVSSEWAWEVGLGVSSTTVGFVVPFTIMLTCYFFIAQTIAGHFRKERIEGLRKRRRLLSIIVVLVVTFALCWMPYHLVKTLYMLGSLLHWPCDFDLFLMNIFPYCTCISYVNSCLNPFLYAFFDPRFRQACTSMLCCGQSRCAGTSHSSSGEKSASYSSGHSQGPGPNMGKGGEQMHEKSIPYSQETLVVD
Background: cAMP levels reflect the balance of adenylyl cyclase and phosphodiesterase activity.

The structures appear in SMILES notation.

As to `CCCCc1nc(=O)c(S(=O)(=O)c2ccc(-c3ccc(F)nc3C)cc2)c(O)n1C(c1ccccc1)C1CC1` (centres unmarked) [Example 202, 2-butyl-1-[cyclopropyl(phenyl)methyl]-5-[4-(6-fluoro-2-methylpyridin-3-yl)benzenesulfonyl]-6-hydroxy-1,4-dihydropyrimidin-4-one], the EC50 lay in the range of 0.01 to 10 nM.
With `CCCCc1nc(=O)c(S(=O)(=O)c2ccc(-c3ccnc(F)c3C)cc2)c(O)n1C(C)c1cccnc1` (centres unmarked) [Example 203, 2-butyl-5-[4-(2-fluoro-3-methylpyridin-4-yl)benzenesulfonyl]-6-hydroxy-1-[1-(pyridin-3-yl)ethyl]-1,4-dihydropyrimidin-4-one] the figure was 0.01 to 10 nM; with `CCCCc1nc(=O)c(S(=O)(=O)c2ccc(-c3ccnc(F)c3C)cc2)c(O)n1C(c1ccccc1)C1CC1` (centres unmarked) [Example 204, 2-butyl-1-[cyclopropyl(phenyl)methyl]-5-[4-(2-fluoro-3-methylpyridin-4-yl)benzenesulfonyl]-6-hydroxy-1,4-dihydropyrimidin-4-one], 0.01 to 10 nM; with `CCCCc1nc(=O)c(S(=O)(=O)c2ccc(-c3ccncc3C)cc2)c(O)n1C(C)c1cccnc1` (centres unmarked) [Example 205, 2-butyl-6-hydroxy-5-[4-(3-methylpyridin-4-yl)benzenesulfonyl]-1-[1-(pyridin-3-yl)ethyl]-1,4-dihydropyrimidin-4-one], 0.01 to 10 nM.
Regarding `CCCCc1nc(=O)c(S(=O)(=O)c2ccc(-c3cccnc3C)cc2)c(O)n1C(c1ccccc1)C1CC1` (centres unmarked) [Example 206, 2-butyl-1-[cyclopropyl(phenyl)methyl]-6-hydroxy-5-[4-(2-methylpyridin-3-yl)benzenesulfonyl]-1,4-dihydropyrimidin-4-one], the 50% effective concentration (EC50) lay within 0.01 to 10 nM.
The figure for `CC[C@@H](c1ccccc1)n1c(CCC(C)C)nc(=O)c(S(=O)(=O)c2ccc(-c3ccnc(F)c3C)cc2)c1O` [Example 207, 5-[4-(2-fluoro-3-methylpyridin-4-yl)benzenesulfonyl]-6-hydroxy-2-(3-methylbutyl)-1-[(1S)-1-phenylpropyl]-1,4-dihydropyrimidin-4-one] is 0.01 to 10 nM; for `CC[C@@H](c1ccccc1)n1c(CCC(C)C)nc(=O)c(S(=O)(=O)c2ccc(-c3ccc(F)nc3C)cc2)c1O` [Example 208, 5-[4-(6-fluoro-2-methylpyridin-3-yl)benzenesulfonyl]-6-hydroxy-2-(3-methylbutyl)-1-[(1S)-1-phenylpropyl]-1,4-dihydropyrimidin-4-one] it is 0.01 to 10 nM; for `CC[C@@H](c1ccccc1)n1c(CCC(C)C)nc(=O)c(S(=O)(=O)c2ccc(-c3ccncc3C)cc2)c1O` [Example 209, 6-hydroxy-2-(3-methylbutyl)-5-[4-(3-methylpyridin-4-yl)benzenesulfonyl]-1-[(1S)-1-phenylpropyl]-1,4-dihydropyrimidin-4-one] it is 0.01 to 10 nM.
With `CCCCc1nc(=O)c(S(=O)(=O)c2ccc(-c3ccncc3C)cc2)c(O)n1[C@H](C)c1ccc(OC)cc1` [Example 210, 2-butyl-6-hydroxy-1-[(1R)-1-(4-methoxyphenyl)ethyl]-5-[4-(3-methylpyridin-4-yl)benzenesulfonyl]-1,4-dihydropyrimidin-4-one] the figure was 0.01 to 10 nM; with `CCCCc1nc(=O)c(S(=O)(=O)c2ccc(-c3ccnc(F)c3C)cc2)c(O)n1[C@@H](CC)c1ccc2c(c1)OCO2` [Example 211, 1-[(1S)-1-(2H-1,3-benzodioxol-5-yl)propyl]-2-butyl-5-[4-(2-fluoro-3-methylpyridin-4-yl)benzenesulfonyl]-6-hydroxy-1,4-dihydropyrimidin-4-one], 0.01 to 10 nM; with `CCCCc1nc(=O)c(S(=O)(=O)c2ccc(-c3ccncc3C)cc2)c(O)n1[C@@H](CC)c1cccc(F)c1` [Example 212, 2-butyl-1-[(1S)-1-(3-fluorophenyl)propyl]-6-hydroxy-5-[4-(3-methylpyridin-4-yl)benzenesulfonyl]-1,4-dihydropyrimidin-4-one], 0.01 to 10 nM.

By EC50 is commonly meant the concentration at which the effect is half-maximal.

Values taken from patent US10508104B2, “6-hydroxy-5-(phenyl/heteroarylsulfonyl)pyrimidin-4(1H)-one as APJ agonists” (Bristol-Myers Squibb Company, priority 2016, dated 2019).
